Laboratory results: patent US20020049223A1, “Quinoline and naphthyridine carboxylic acid antibacterials” (priority 1999, published 2002)

What was measured:
Experiment in all cases: Assay B: in vitro antibacterial activity, broth microdilution MIC (NCCLS)
Type in all cases: cell-based
[1] = tested on: Enterococcus faecalis PIU 1967; settings: Table 2, Assay B, cation-adjusted Mueller Hinton broth, 35° C., 16 to 20 hr; code B = Enterococcus faecalis PIU 1967; unit assumed
Summary of the method: (§1)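 Serial two-fold dilutions in cation-adjusted Mueller Hinton broth; inoculum ~5×10^5 CFU/mL from overnight cultures; 35° C, ambient air, 16 to 20 hr. MIC read visually as lowest concentration completely inhibiting growth. S. pneumoniae: 3% lysed horse blood, 20 to 24 hr; H. influenzae: 5 g/L yeast extract, 0.3 mmol/L hematin, 15 mg/L NAD, 20 to 24 hr.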

[2] = tested on: Escherichia coli JUHL; settings: Table 2, Assay B, cation-adjusted Mueller Hinton broth, 35° C., 16 to 20 hr; code D = Escherichia coli JUHL; unit assumed
Summary of the method: as §1

[3] = tested on: Haemophilus influenzae DILL AMP R; settings: Table 2, Assay B, Mueller Hinton broth with yeast extract, hematin and NAD, 20 to 24 hr; code E = Haemophilus influenzae DILL AMP R; unit assumed
Summary of the method: as §1

[4] = tested on: Staphylococcus aureus ATCC 6538P; settings: Table 2, Assay B, cation-adjusted Mueller Hinton broth, 35° C., 16 to 20 hr; code A = Staphylococcus aureus ATCC 6538P; unit assumed
Summary of the method: as §1

[5] = tested on: Streptococcus pneumoniae ATCC 6303; settings: Table 2, Assay B, Mueller Hinton broth with 3% lysed horse blood, 20 to 24 hr; code F = Streptococcus pneumoniae ATCC 6303; unit assumed
Summary of the method: as §1

SMILES	Antibacterial Activity (MIC's), B [1] [µg/mL]	Antibacterial Activity (MIC's), D [2] [µg/mL]	Antibacterial Activity (MIC's), E [3] [µg/mL]	Antibacterial Activity (MIC's), A [4] [µg/mL]	Antibacterial Activity (MIC's), F [5] [µg/mL]
COc1c(-c2cc3c(s2)CCCC3=NN(C)C(N)=S)ccc2c(=O)c(C(=O)O)cn(C3CC3)c12 [Example 105, 7-((4E/Z)-4-[(aminocarbothioyl)(methyl)hydrazono)-4,5,6,7-tetrahydro-1-benzothien-2-yl)-1-cyclopropyl-8-methoxy-4-oxo-1 4-dihydro-3-quinolinecarboxylic acid]	0.25	1	0.06	0.03	0.03
Cl.NC1CCCc2cc(-c3ccc4c(=O)c(C(=O)O)cn(C5CC5)c4c3)sc21 (stereo not drawn) [Example 288, 7-(7-amino-4,5,6,7-tetrahydro-1-benzothien-2-yl)-1-cyclopropyl-4-oxo-1,4-dihydroquinoline-3-carboxylic acid hydrochloride]	0.125	0.03	0.015	0.03	0.03
Cl.NC1CCCc2sc(-c3ccc4c(=O)c(C(=O)O)cn(C5CC5)c4c3OC(F)F)cc21 (stereo not drawn) [Example 101, 7-(4-amino-4,5,6,7-tetrahydro-1-benzothien-2-yl)-1-cyclopropyl-8-(difluoromethoxy)-4-oxo-1,4-dihydro-3-quinolinecarboxylic acid hydrochloride]	0.125	0.125	0.015	0.03	0.03
COc1c(-c2cc3c(s2)S(=O)(=O)CCC3N)ccc2c(=O)c(C(=O)O)cn(C3CC3)c12.Cl (stereo not drawn) [Example 143, 7-(4-amino-7,7-dioxido-5,6-dihydro-4H-thieno[2,3-b]thiopyran-2-yl)-1-cyclopropyl-8-methoxy-4-oxo-1,4-dihydro-3-quinolinecarboxylic acid hydrochloride]	0.5	64	0.125	0.125	0.5
COc1c(-c2cc3c(s2)CC(=O)CC3)ccc2c(=O)c(C(=O)O)cn(C3CC3)c12 [Example 59, 1-cyclopropyl-8-methoxy-4-oxo-7-(6-oxo-4,5,6,7-tetrahydro-1-benzothien-2-yl)-1,4-dihydro-3-quinolinecarboxylic acid]	1	8	1	0.03	0.5
COc1c(-c2cc3c(s2)CCCC3N(C)C)ccc2c(=O)c(C(=O)O)cn(C3CC3)c12.Cl (stereo not drawn) [Example 83, 1-cyclopropyl-7-(4-(dimethylamino)-4,5,6,7-tetrahydro-1-benzothien-2-yl)-8-methoxy-4-oxo-1,4-dihydro-3-quinolinecarboxylic acid hydrochloride]	0.5	0.5	0.25	0.125	0.125
Cl.NC1CCCc2cc(-c3ccc4c(=O)c(C(=O)O)cn(C5CC5)c4c3Cl)sc21 (stereo not drawn) [Example 330, 7-(7-amino-4,5,6,7-tetrahydro-1-benzothien-2-yl)-8-chloro-1-cyclopropyl-4-oxo-1,4-dihydroquinoline-3-carboxylic acid hydrochloride]	0.06	0.03	0.008	0.015	0.03
COc1c(-c2cc3c(s2)CCCC3(C)C)ccc2c(=O)c(C(=O)O)cn(C3CC3)c12 [Example 227, 1-cyclopropyl-7-(4,4-dimethyl-4,5,6,7-tetrahydro-1-benzothien-2-yl)-8-methoxy-4-oxo-1,4-dihydro-3-quinolinecarboxylic acid]	2	> 64	2	0.5	8
COc1c(-c2sc3c(c2C)C(N)CCC3)ccc2c(=O)c(C(=O)O)cn(C3CC3)c12.Cl (stereo not drawn) [Example 232, 7-(4-amino-3-methyl-4,5,6,7-tetrahydro-1-benzothien-2-yl)-1-cyclopropyl-8-methoxy-4-oxo-1,4-dihydro-3-quinolinecarboxylic acid hydrochloride]	0.5	0.25	0.125	0.06	0.125
CON=C1CCCc2sc(-c3ccc4c(=O)c(C(=O)O)cn(C5CC5)c4c3OC)cc21 [Example 64, 1-cyclopropyl-8-methoxy-7-((4E/Z)-4-(methoxyimino)-4,5,6,7-tetrahydro-1-benzothien-2-yl)-4-oxo-1,4-dihydro-3-quinolinecarboxylic acid]	0.25	2	0.25	0.03	0.125
COc1c(-c2cc3c(s2)CCCC3=NNC(C)=O)ccc2c(=O)c(C(=O)O)cn(C3CC3)c12 [Example 96, 7-((4E/Z)-4-(acetylhydrazono)-4,5,6,7-tetrahydro-1-benzothien-2-yl)-1-cyclopropyl-8-methoxy-4-oxo-1,4-dihydro-3-quinolinecarboxylic acid]	0.5	1	0.03	< 0.004	0.03
COc1c(-c2cc3c(s2)CCCC3NCCO)ccc2c(=O)c(C(=O)O)cn(C3CC3)c12.Cl (stereo not drawn) [Example 155, 1-cyclopropyl-7-(4-((2-hydroxyethyl)amino)-4,5,6,7-tetrahydro-1-benzothien-2-yl)-8-methoxy-4-oxo-1,4-dihydro-3-ouinolinecarboxylic acid hydrochloride]	0.125	0.5	0.06	0.03	0.03
Cl.NC1CCCc2sc(-c3ccc4c(=O)c(C(=O)O)cn(C5CC5)c4c3Cl)cc21 (stereo not drawn) [Example 329, 7-(4-amino-4,5,6,7-tetrahydro-1-benzothien-2-yl)-8-chloro-1-cyclopropyl-4-oxo-1,4-dihydroquinoline-3-carboxylic acid hydrochloride]	0.03	0.03	0.008	≤ 0.004	0.008
CNC1CCCc2sc(-c3ccc4c(=O)c(C(=O)O)cn(C5CC5)c4c3OC)cc21.Cl (stereo not drawn) [Example 77, 1-cyclopropyl-8-methoxy-7-[4-(methylamino)-4,5,6,7-tetrahydro-1-benzothien-2-yl]-4-oxo-1,4-dihydro-3-quinolinecarboxylic acid hydrochloride]	0.125	0.25	0.06	0.015	0.03
COc1c(-c2cc3c(s2)CC(=NOCc2ccccc2)C3)ccc2c(=O)c(C(=O)O)cn(C3CC3)c12 [Example 255]	4	32	2	0.5	8
COc1c(-c2cc3c(s2)C(O)CCC3(C)C)ccc2c(=O)c(C(=O)O)cn(C3CC3)c12 (stereo not drawn) [Example 218, 1-cyclopropyl-7-(7-hydroxy-4,4-dimethyl-4,5,6,7-tetrahydro-1-benzothien-2-yl)-8-methoxy-4-oxo-1,4-dihydro-3-quinolinecarboxylic acid]	0.25	2	0.25	0.06	0.5
COc1c(-c2cc3c(s2)C(N)C(C)(C)CC3)c(F)cc2c(=O)c(C(=O)O)cn(C3CC3)c12.Cl (stereo not drawn) [Example 348, 7-(7-amino-6,6-dimethyl-4,5,6,7-tetrahydro-1-benzothien-2-yl)-1-cyclopropyl-6-fluoro-8-methoxy-4-oxo-1,4-dihydroquinoline-3-carboxylic acid hydrochloride]	0.125	0.25	0.06	0.015	0.03
Cl.NC1CCCc2sc(-c3c(F)cc4c(=O)c(C(=O)O)cn(C5CC5)c4c3F)cc21 (stereo not drawn) [Example 308, 7-(4-amino-4,5,6,7-tetrahydro-1-benzothien-2-yl)-1-cyclopropyl-6,8-difluoro-4-oxo-1,4-dihydroquinoline-3-carboxylic acid hydrochloride]	0.03	0.03	0.015	0.008	0.015
